According to patent US20260335323A1, “CHIMERIC MOLECULE” (UCL Business Ltd, priority 2023, published 2026):

Experiments:
[1] = system: SH-SY5Y cells; experiment: mito-mKeima mitophagy assay (mitophagy index); type: cell-based, human; conditions: mitochondrial toxin treatment
Protocol: FIG. 1. The structure of AUTAC-4 is shown in (A). (B) Representative images of SH-SY5Y cells stably expressing the mito-mKeima reporter treated with AUTAC4 for 18 h. Nuclei were stained with Hoechst 33342, healthy mitochondria are shown in green and mitochondria in lysosomes are shown in red. (C-E) Fold change in mitophagy index over time after treatment with increasing concentrations of AUTAC4 under treatment with DMSO (C), 3 mM CCCP (D) or 0.1/0.1 mM antimycin/oligomycin (E), also for 18 h. (F) Quantification of changes in mitochondrial membrane potential over time (DYm) by measuring the TMRM relative fluorescence intensity (RFI) treated with DMSO, 10 mM CCCP, 10 mM and 20 mM AUTAC4. Normalised to number of nuclei. (G) Representative western blot of SH-SY5Y cells treated with DMSO, 10 mM AUTAC4 or 10 mM AUTAC4+0.1/0.1 mM antimycin/oligomycin for 18 h and, probed for p62, b-actin and Tom20. Quantifications of western blot for changes in Tom20 and p62 levels shown in (H) and (I), respectively. (J) Representative images of PANC-1 cells stably expressing the mCherry-EGFP-LC3 tandem reporter. Nuclei stained with Hoechst 33342, autophagosomes are shown in the EGFP channel and autolysosomes in the mCherry channel. Fold change in the number of autophagosome (K) and autolysosome (L) puncta in AUTAC4 treated cells. All data shown are mean±SEM, n=3, *p<0.05, *** p<0.001. For mito-mKeima experiments, statistics were calculated by Two-way ANOVA with Tukey's multiple comparisons test. For western blots, TMRM and LC3 tandem reporter assay, statistics were calculated with one-way ANOVA with Tukey's multiple comparisons test.
(§1) FIG. 5. ULKTACs induce potent mitophagy after colocalisation and local activation of ULK1 at mitochondria (A) Representative immunofluorescence of PANC-1 cells treated with CCCP, ULKTACs or both and immunostained for TOM20 and ULK1 and counterstained with Alexa 488 and 568, respectively. Nuclei stained with Hoechst 33342. (B) Quantification of the colocalised ULK1 to TOM20 spot area of PANC-1 cells treated with DMSO, 5 mM CCCP, 10 mM BL-918, 10 mM BL-918+5 mM CCCP, […] NZ-65, […] NZ-65+5 mM CCCP, […] NZ-66, […] NZ-66+5 mM CCCP, 50 mM TSPO ligand, […] NZ-65+50 mM TSPO ligand, […] NZ-66+50 mM TSPO ligand. (C) Western blot of SH-SY5Y cells treated with 1 mM ULKTACs, 5 mM CCCP or both, probed for Mfn2, b-Actin and Tom20—quantifications are shown in (D) for Mfn2, normalised to Actin. (E) Representative images of SH-SY5Y cells stably expressing the mito-mKeima reporter treated with 3 mM CCCP, NZ-65 or both. Nuclei were stained with Hoechst 33342, healthy mitochondria are shown in green and mitochondria in lysosomes are shown in red. Fold change in mitophagy index over time after treatment for the indicated timepoints with title treatments alone or co-treated with 1.25 mM ULKTAC or 10 mM ULKTAC NZ-65 (F) or NZ-66 (G). Fold change in mitophagy index over time after treatment for the indicated timepoints with DMSO, 1.25 µM NZ-65 or NZ-66±50 µM TSPO ligand under co-treatment with DMSO (H) or 3 μM CCCP (I). […] Normalised to number of nuclei. All data shown are mean±SEM, n=3, *p<0.05, ** p<0.01, *** p<0.001. For colocalisation and TMRM experiments, one-way ANOVA with Dunnett's multiple comparisons test. For western blots, one-way ANOVA with Tukey's multiple comparisons test and unpaired t-test. For mito-mKeima experiment, two-way ANOVA with Tukey's multiple comparisons test.
SH-SY5Y stably expressing mito-mKeima were produced as previously described28,29. Cells were seeded in 384 well CellCarrier Ultra plates (PerkinElmer) 24 hours before treatment in complete media without phenol red. Cells were treated with increasing concentrations of BL-918, AUTAC4, NZ-65 or NZ-66, 24 hours prior to treatment with increasing concentrations of mitochondrial uncouplers to cause mitochondrial insult. SH-SY5Y mitochondria were treated with DMSO, 3 μM CCCP, 10 μM CCCP, 0.1/0.1 μM antimycin/oligomycin (AO), 0.5/0.5 µM AO or 1/1 μM AO. […]

[2] = system: Mfn2; experiment: Western blot, Mfn2 degradation in MEF WT; type: cell-based, mouse; conditions: with ULKTAC; cells not given
Protocol: FIG. 6. ULKTACs rely on ULK1 for the redirection of autophagy components to mitochondria and subsequent mitophagic degradation (A) Western blot of mouse embryonic fibroblasts (MEF) WT and MEF ULK1/2^−/− treated with 1 mM ULKTACs, 5 mM CCCP or both and probed for ULK1, Mfn2 and Actin—quantification of the relative intensity of Mfn2 shown in (B), normalised to Actin. Representative immunofluorescence of MEF WT (C) and MEF ULK1/2^−/− (D) treated with 5 mM CCCP, 1 mM ULKTACs or both and immunostained for Alexa 488 ATP5a and Alexa 647 LC3B. Quantification of the colocalised LC3 to ATP5a spot area shown in WT vs ULK1/2^−/− treated MEF cells shown in (E). Data shown are mean±SEM, n=3, *p<0.05, ** p<0.01, *** p<0.001, Two-way ANOVA with Tukey's multiple comparisons test.
Cells were homogenised in protein lysis buffer consisting of 0.1 M Tris pH 8.0, 0.1 M NaCl, 5% glycerol, IGEPAL® CA-630 (#18896. Sigma-Aldrich) and 5 mM EDTA, 0.1 M N-ethyl maleimide (ThermoFisher, #23030) and protease inhibitor (Cell Signalling Technologies, #5871). Protein concentrations were determined using the BCA assay to ensure equal loading. […] The membranes were immunoblotted with primary antibodies, overnight at 4° C. ULK1 (D8H5) Rabbit mAb (#0854) [1:1000], Phospho-ULK1 (Ser 317) Rabbit antibody (#37762) [1:1000], LC3B Rabbit antibody (#2775) [1:1000], TOM20 (D8T4N) Rabbit mAb (#42406) [1:1000] and, Phospho-Ubiquitin (Ser 65) (E2J6T) Rabbit mAb (#62082) [1:500] were obtained from Cell Signalling Technologies. Recombinant Anti-Vinculin Rabbit antibody (EPR8185) (#ab129002) [1:5000] and Anti-Mitofusin2 mouse antibody (6A8) (#ab56889) [1:1000] were purchased from Abcam. Anti-Actin mouse monoclonal antibody (#A1978) [1:1000] and Anti-rabbit p62/SQSTM1 (#P0067) [1:1000], were purchased from Sigma-Aldrich. Mono- and polyubiquitinylated conjugates monoclonal antibody (FK2) (BML-PW8810-0100) [1:500] was purchased from Enzo Life Sciences. Anti BRD4 (E2A7X) rabbit monoclonal antibody (#13440), Anti c-MYC (D84C12) rabbit monoclonal antibody (#5605) [1:1000], Anti GAPDH (D4C6R) mouse monoclonal antibody (#97166) [1:1000], Anti Max (S20) rabbit monoclonal antibody (#4739) [1:1000] were purchased from Cell Signalling Technologies. Anti Phospho-CHK1 (Ser 345) rabbit monoclonal antibody (#2341) [1:1000], Anti gamma-H2AX (Ser 139) rabbit monoclonal antibody (#2577) [1:1000] were obtained from Cell Signalling Technologies, Anti RPA32/RPA2 (phospho S4/S8) rabbit monoclonal antibody (ab87277) [1:1000] were obtained from Abcam.
Membranes were then incubated with horseradish peroxidase (HRP)-conjugated secondary antibodies (Rabbit #7074 and Mouse #7076) purchased from Cell Signalling Technologies for 1 hour and the HRP signal was detected using EZ-ECL Enhanced Chemiluminescence Detection Kit for HRP (#20-500-500, Sartorius), and imaged with an Alliance Q9 Advanced (UVITec). Where required, membranes were stripped with mild stripping buffer consisting of 0.2 M glycine, 3.47 mM SDS, 1% Tween 20, pH 2.2, blocked for 1 hour with TBS-T+3% BSA and re-probed with primary antibodies.
Therefore, we conclude that NZ-65 and NZ-66 are novel ULKTAC molecules that initiate the recruitment of ULK1 to mitochondria, leading to an increase in local ULK1 activity, the formation of an autophagosome and mitophagy.

[3] = target: T1, ULK1 (Homo sapiens, UniProt O75385); experiment: ULK1/TOM20 co-localisation immunofluorescence in PANC-1 cells; type: cell-based; set-up: pSer317 blot or TOM20 co-localisation; conditions: PANC-1, 18 hours, alone
T1 sequence (O75385 1-1050): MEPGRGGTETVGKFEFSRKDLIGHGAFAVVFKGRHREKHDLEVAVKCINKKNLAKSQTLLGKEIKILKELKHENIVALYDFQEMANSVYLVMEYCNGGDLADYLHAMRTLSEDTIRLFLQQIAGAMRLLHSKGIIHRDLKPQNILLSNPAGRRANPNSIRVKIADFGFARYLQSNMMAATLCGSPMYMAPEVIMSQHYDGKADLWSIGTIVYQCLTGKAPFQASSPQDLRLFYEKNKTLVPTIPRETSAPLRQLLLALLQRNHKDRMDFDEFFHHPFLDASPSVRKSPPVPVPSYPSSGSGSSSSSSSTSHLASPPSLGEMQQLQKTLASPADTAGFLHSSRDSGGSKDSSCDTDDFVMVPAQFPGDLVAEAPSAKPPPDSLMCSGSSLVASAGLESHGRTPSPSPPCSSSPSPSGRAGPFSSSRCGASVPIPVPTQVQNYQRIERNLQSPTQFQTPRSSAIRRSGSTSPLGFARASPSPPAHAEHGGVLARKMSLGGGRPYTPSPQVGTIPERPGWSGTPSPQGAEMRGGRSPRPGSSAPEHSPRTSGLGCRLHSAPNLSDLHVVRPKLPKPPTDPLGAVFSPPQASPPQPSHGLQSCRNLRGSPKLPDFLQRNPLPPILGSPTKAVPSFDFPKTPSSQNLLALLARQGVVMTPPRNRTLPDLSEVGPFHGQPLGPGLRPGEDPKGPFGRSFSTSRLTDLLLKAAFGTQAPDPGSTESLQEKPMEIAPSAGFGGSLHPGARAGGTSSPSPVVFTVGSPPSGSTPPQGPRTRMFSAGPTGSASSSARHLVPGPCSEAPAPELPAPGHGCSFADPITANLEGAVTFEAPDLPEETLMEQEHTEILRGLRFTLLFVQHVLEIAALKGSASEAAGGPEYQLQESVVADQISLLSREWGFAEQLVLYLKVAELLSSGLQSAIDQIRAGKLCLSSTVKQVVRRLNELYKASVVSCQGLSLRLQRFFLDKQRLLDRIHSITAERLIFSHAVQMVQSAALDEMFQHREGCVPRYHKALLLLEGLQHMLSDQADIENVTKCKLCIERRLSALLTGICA
Protocol: as §1
For TOM20/ULK1 immunofluorescence, cells were seeded in a 384 well PerkinElmer CellCarrier Ultra plate 24 hours prior to treatment with compounds. Cells were treated for 18 hours after which they were fixed with 4% paraformaldehyde (PFA) in phosphate buffered saline (PBS) and blocked with 10% FBS and 0.1% Triton in PBS. Plates were incubated at 4° C. overnight, with 1:400 mouse anti-TOM20 (Santa Cruz, #sc-17764) and 1:400 rabbit anti-ULK1 (Cell Signalling Technologies, #0854). The following day, plates were incubated with 1:1000 goat anti-mouse Alexa 488 (ThermoFisher Scientific, #A-11029), 1:1000 goat anti-rabbit Alexa 568 (ThermoFisher Scientific, #A-11011) and 1.62 μM Hoechst 33342 at room temperature for 1 hour before imaging. For ATP5a/LC3 immunofluorescence, cells were fixed with ice-cold 1:1 MeOH: acetone and blocked with 3% BSA (Sigma-Aldrich, #A3803) in Dulbecco's PBS (D-PBS). Plates were incubated overnight at 4° C. with 1:400 LC3B (D11) XP Rabbit mAb Alexa Fluor 647 Conjugate (Cell Signalling Technologies, #65299) and 1:400 ATP5a (Cell Signalling Technologies, #18023) lightning-linked to Alexa Fluor 488. The following day, plates were incubated with 1.62 […] at room temperature for 1 hour before imaging. Excitation and emission spectra for each channel are as follows: Hoechst 33342=405/435-480 nm, Alexa 488=488/500-550 nm and Alexa 568=561/570-630 nm. Images were acquired at 40× and 63× magnification with water immersion lens.
To understand the temporal kinetics of NZ-65 and NZ-66, we assessed the recruitment of ULK1 to mitochondria, using co-localisation of ULK1 and TOM20 by immunofluorescence. […] After showing the co-localisation of ULK1 to the outer mitochondrial membrane (OMM) after ULKTAC treatment, we wanted to determine whether the ULKTACs induced mitophagy. To do this, we measured changes in Mfn2 under basal conditions and co-treatment with CCCP (FIG. 5C, D).

N#CC(C#N)=NNc1cccc(Cl)c1 [CCCP, reference compound]
induction of mitophagy [1]: induction of mitophagy

COc1ccc(Nc2ncc(C(F)(F)F)c(NC3CC3)n2)cc1OC [SBP-7455, reference compound]
ULKTAC mediated degradation of Mfn2 in presence of dual ULK1/2 inhibitor [2]: additionally demonstrating the requirement for ULK1 for ULKTAC mediated degradation of Mfn2

NC(=O)C(=O)c1c(-c2ccccc2)[nH]c2ccccc12 [TSPO ligand, reference compound]
co-localisation of ULK1 and TOM20 [3]: neither BL-918 nor the TSPO ligand alone induce co-localisation
